Measured values reported in publication PMC6705415 (Nature structural & molecular biology, 2019).
Residue numbers refer to the chain shown, from its start.

How the values were obtained:
[1] = molecular target: T1, hENT1 Met33Ile (hENT1cryst background) (Homo sapiens, UniProt Q99808, DEL243-274/L168F/M33I/N288K/P175A); experiment: Cold dilazep displacement of 3H-NBMPR; format: binding; details: Met33Ile relative to hENT1cryst; displacement of 100 nM 3H-NBMPR
T1 sequence (Q99808 with tags, fused parts or gaps M33I/L168F/P175A/DEL243-274/N288K): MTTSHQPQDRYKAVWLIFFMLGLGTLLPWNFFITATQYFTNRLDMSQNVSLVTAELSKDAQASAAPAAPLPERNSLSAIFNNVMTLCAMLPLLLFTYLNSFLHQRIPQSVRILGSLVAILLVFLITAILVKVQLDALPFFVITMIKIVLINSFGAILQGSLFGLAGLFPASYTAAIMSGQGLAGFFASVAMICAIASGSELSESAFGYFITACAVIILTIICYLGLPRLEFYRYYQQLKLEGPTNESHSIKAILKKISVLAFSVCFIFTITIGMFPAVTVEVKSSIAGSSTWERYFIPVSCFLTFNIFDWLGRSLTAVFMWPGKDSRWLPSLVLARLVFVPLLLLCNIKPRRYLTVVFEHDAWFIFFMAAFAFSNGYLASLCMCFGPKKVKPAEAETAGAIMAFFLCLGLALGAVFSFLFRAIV

[2] = molecular target: T2, hENT1 Phe307Tyr (hENT1cryst background) (Homo sapiens, UniProt Q99808, DEL243-274/F307Y/L168F/N288K/P175A); experiment: Cold dilazep displacement of 3H-NBMPR; format: binding; details: Phe307Tyr relative to hENT1cryst; displacement of 100 nM 3H-NBMPR
T2 sequence (Q99808 with tags, fused parts or gaps L168F/P175A/DEL243-274/N288K/F307Y): T1 sequence (Q99808 with tags, fused parts or gaps M33I/L168F/P175A/DEL243-274/N288K) with I33M, F275Y

[3] = molecular target: T3, hENT1 Phe307Ala (hENT1cryst background) (Homo sapiens, UniProt Q99808, DEL243-274/F307A/L168F/N288K/P175A); experiment: Cold dilazep displacement of 3H-NBMPR; format: binding; details: Phe307Ala relative to hENT1cryst; displacement of 100 nM 3H-NBMPR
T3 sequence (Q99808 with tags, fused parts or gaps L168F/P175A/DEL243-274/N288K/F307A): T1 sequence (Q99808 with tags, fused parts or gaps M33I/L168F/P175A/DEL243-274/N288K) with I33M, F275A

[4] = system: hENT1 Gly154 mutated to serine; details: Gly154 to serine mutation in hENT1 versus wild type; cited from earlier work

Compound | increase in apparent Kd for dilazep [1] | decrease in apparent Kd for dilazep [2] | increase in apparent Kd for dilazep [3] | decrease in NBMPR inhibitory potency [4]
COc1cc(C(=O)OCCCN2CCCN(CCCOC(=O)c3cc(OC)c(OC)c(OC)c3)CC2)cc(OC)c1OC [dilazep] | ~ 3 fold | ~ 4 fold | ~ 90 fold | –
O=[N+]([O-])c1ccc(CSc2ncnc3c2ncn3[C@@H]2O[C@H](CO)[C@@H](O)[C@H]2O)cc1 [NBMPR, S-(4-Nitrobenzyl)-6-thioinosine] | – | – | – | ~ 2,500 fold
